Experimental data as given in ChEMBL document CHEMBL4350985, “1,3-Dioxane as a scaffold for potent and selective 5-HT1AR agonist with in-vivo anxiolytic, anti-depressant and anti-nociceptive activity” (Eur J Med Chem, 2019).
The source made the active and inactive calls. No cut-off for these calls is given here.

What was measured:
[1] = target: T1, Alpha-1A adrenergic receptor (Rattus norvegicus) (UniProt P43140); assay: Antagonist activity at alpha-1a adrenergic receptor in Wistar rat prostatic vas deferens assessed as inhibition of (-)-noradrenaline-induced contraction
T1 sequence (whole entry): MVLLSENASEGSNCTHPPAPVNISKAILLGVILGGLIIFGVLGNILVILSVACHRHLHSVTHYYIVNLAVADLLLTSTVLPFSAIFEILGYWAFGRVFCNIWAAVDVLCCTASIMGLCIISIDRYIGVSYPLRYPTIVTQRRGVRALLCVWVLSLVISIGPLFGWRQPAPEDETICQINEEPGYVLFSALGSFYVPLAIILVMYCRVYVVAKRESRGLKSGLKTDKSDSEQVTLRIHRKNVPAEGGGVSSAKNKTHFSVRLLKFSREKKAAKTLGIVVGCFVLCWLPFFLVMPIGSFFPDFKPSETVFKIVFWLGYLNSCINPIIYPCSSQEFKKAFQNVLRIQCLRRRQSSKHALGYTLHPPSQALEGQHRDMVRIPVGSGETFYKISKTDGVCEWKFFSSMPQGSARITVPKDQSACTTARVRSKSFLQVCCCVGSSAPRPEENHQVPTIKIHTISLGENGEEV

[2] = target: T2, Alpha-1A adrenergic receptor (Homo sapiens, UniProt P35348); assay: biochemical
T2 sequence (P35348 whole entry): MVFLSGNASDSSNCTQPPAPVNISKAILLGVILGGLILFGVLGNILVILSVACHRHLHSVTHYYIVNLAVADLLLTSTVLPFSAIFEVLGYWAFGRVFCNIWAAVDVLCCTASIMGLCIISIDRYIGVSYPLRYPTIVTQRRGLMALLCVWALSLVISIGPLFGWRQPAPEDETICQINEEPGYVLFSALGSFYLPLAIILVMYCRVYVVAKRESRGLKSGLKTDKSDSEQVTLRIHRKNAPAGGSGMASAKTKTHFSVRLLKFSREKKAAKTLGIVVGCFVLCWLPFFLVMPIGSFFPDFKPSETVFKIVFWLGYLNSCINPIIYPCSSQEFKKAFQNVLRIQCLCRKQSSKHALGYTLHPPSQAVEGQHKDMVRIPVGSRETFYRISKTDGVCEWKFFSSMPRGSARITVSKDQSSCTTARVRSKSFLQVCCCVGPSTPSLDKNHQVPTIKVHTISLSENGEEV
Description: Displacement of [3H] prazosin from human cloned adrenoceptor alpha 1A expressed in CHO cell membrane incubated for 30 mins by liquid scintillation counting

SH-SY5Y [3] = assay: Cytotoxicity against human SH-SY5Y cells assessed as reduction in cell viability incubated for 24 hrs by MTT assay; format: cell-based
SH-SY5Y [4] = assay: Neuroprotective activity against H2O2-induced cell death in human SH-SY5Y cells at 1 uM incubated for 24 hrs by MTT assay; format: functional
SH-SY5Y [5] = assay: Neuroprotective activity against rotenone-induced cell death in human SH-SY5Y cells at 1 uM incubated for 24 hrs by MTT assay; format: functional
SH-SY5Y [6] = assay: Neuroprotective activity against rotenone-induced cell death in human SH-SY5Y cells at 0.1 uM incubated for 24 hrs by MTT assay; format: functional
[7] = Apparent permeability from apical to basolateral side in dog MDCK2-MDR1 cells incubated for 120 mins by UV-visible spectrophotometry; format: ADME, cell-based, Canis lupus familiaris; conditions: MDCK-MDR1
[8] = Efflux ratio of apparent permeability from basolateral to apical side over apical to basolateral side in dog MDCK2-MDR1 cells incubated for 120 mins by UV-visible spctrophotometry; format: ADME, cell-based, Canis lupus familiaris; conditions: MDCK-MDR1
[9] = Cmax in Sprague-Dawley rat plasma at 10 mg/kg, po measured upto 480 mins by LC/MS-MS analysis; format: ADME, organism-based; parameters: dose 10 mg/kg, route oral
[10] = Tmax in Sprague-Dawley rat plasma at 10 mg/kg, po measured upto 480 mins by LC/MS-MS analysis; format: ADME, organism-based
[11] = Half life in Sprague-Dawley rat plasma at 10 mg/kg, po measured upto 480 mins by LC/MS-MS analysis; format: ADME, organism-based
[12] = Ratio of drug level in brain to plasma in Sprague-Dawley rat at 10 mg/kg, po measured upto 480 mins by LC/MS-MS analysis; format: ADME, organism-based; conditions: read-out: BPR
[13] = Cmax in Sprague-Dawley rat brain at 10 mg/kg, po measured upto 480 mins by LC/MS-MS analysis; format: ADME, organism-based; parameters: dose 10 mg/kg, route oral; conditions: in vivo, 8 h
[14] = Tmax in Sprague-Dawley rat brain at 10 mg/kg, po measured upto 480 mins by LC/MS-MS analysis; format: ADME, organism-based
[15] = AUC (0 to t) in Sprague-Dawley rat brain at 10 mg/kg, po measured upto 480 mins by LC/MS-MS analysis; format: ADME, organism-based; conditions: in vivo, 8 h
[16] = AUC (0 to infinity) in Sprague-Dawley rat brain at 10 mg/kg, po measured upto 480 mins by LC/MS-MS analysis; format: ADME, organism-based; parameters: dose 10 mg/kg, time infinity, route oral; conditions: in vivo, 8 h
[17] = Half life in Sprague-Dawley rat brain at 10 mg/kg, po measured after 15 to 45 mins by LC/MS-MS analysis; format: ADME, organism-based
[18] = Half life in Sprague-Dawley rat brain at 10 mg/kg, po measured after 45 to 480 mins by LC/MS-MS analysis; format: ADME, organism-based
Rattus norvegicus [19] = assay: Anxiolytic activity at Sprague-Dawley rat assessed as increase in time spent in open arm at 20 mg/kg, po by EPM test relative to control; format: functional
Rattus norvegicus [20] = assay: Effect on locomotory activity in Sprague-Dawley rat assessed as distance travelled at 10 mg/kg, po by open field test; format: functional, organism-based
Rattus norvegicus [21] = assay: Anxiolytic activity in at Sprague-Dawley rat assessed as increase in time spent in central area of open field at 10 mg/kg, po by open field test; format: functional, organism-based
Rattus norvegicus [22] = assay: Anxiolytic activity in at Sprague-Dawley rat assessed as increase in number of entries into central area of open field at 10 mg/kg, po by open field test; format: functional, organism-based
Rattus norvegicus [23] = assay: Antidepressant activity in Sprague-Dawley rat assessed as decrease in time of immobilization at 10 and 20 mg/kg, po by forced swim test; format: functional, organism-based
Rattus norvegicus [24] = assay: Antidepressant activity in Sprague-Dawley rat assessed as increase in time spent in swimming at 10 and 20 mg/kg, po by forced swim test; format: functional, organism-based
Rattus norvegicus [25] = assay: Antidepressant activity in Sprague-Dawley rat assessed as time spent on climbing at 5 to 20 mg/kg, po by forced swim test; format: functional, organism-based
Mus musculus [26] = assay: Antinociceptive activity in formalin-induced nociception pain Swiss […] mouse model assessed as decrease in perception of II phase of noxious stimulus at 10 mg/kg, ip by formalin test; format: functional, organism-based
Mus musculus [27] = assay: Antinociceptive activity in formalin-induced nociception pain Swiss […] mouse model assessed as perception of II phase of noxious stimulus at 10 mg/kg, ip co-administered with 3 mg/kg, ip 5-HT1AR antagonist WAY-100635 by formalin test; format: functional, organism-based
[28] = Ratio of compound t1/2 to 8-OH-DPAT t1/2 in Sprague-Dawley rat plasma at 10 mg/kg, po measured upto 480 mins by LC/MS-MS analysis; format: ADME, organism-based; conditions: in vivo, 8 h
Rattus norvegicus [29] = assay: Anxiolytic activity at Sprague-Dawley rat assessed as decrease in time spent in closed arm at 5 to 20 mg/kg, po by EPM test; format: functional, organism-based
Homo sapiens = species: Homo sapiens; assay: Selectivity ratio of pKi for human cloned 5HT-1AR transfected in HeLa cells to pKi for human cloned adrenoceptor alpha 1D expressed in CHO cell membrane; format: cell-based

`COc1ccccc1OCCNCCC1COC(c2ccccc2)(c2ccccc2)O1` (stereo not given) showed a pKb [1] of 6.74 and a Ki [2] of 7.24 nM.

For `OCC(CNCCOc1ccccc1)OC(c1ccccc1)c1ccccc1` (stereo not given), the pKb [1] was < 5 and the Ki [2] was 141 nM.

In the case of `COc1ccccc1OCCNCC1COC(c2ccccc2)(c2ccccc2)OC1.O=C(O)C(=O)O`, the pKb [1] is reported as 5.98, the IC50 (SH-SY5Y [3]) is reported as 31200 nM and the Activity (SH-SY5Y [4]) is reported as 79%. It also gave an Activity (SH-SY5Y [5]) of 61%, an Activity (SH-SY5Y [6]) of 63% and a Papp A→B at 2 h [7] of 26 ×10⁻⁶ cm/s. The efflux ratio at 2 h [8] was 0.49, the Cmax [9] was 95 nM and the Tmax [10] was 0.5 h. It also gave a half-life [11] of 1.71 h, a Kp at 8 h [12] of 420 and a Cmax [13] of 157.9 nmol/g. For the same compound, the Tmax [14] was 1 h, the AUCt [15] was 7167.6 nmol·min/g and the AUC [16] was 7173.4 nmol·min/g. It also gave a half-life [17] of 6.2 min, a half-life [18] of 2.37 h and an Activity (Rattus norvegicus [19]) of 18%. The Activity (Rattus norvegicus [20]) was “inactive”, the Activity (Rattus norvegicus [21]) was “Active” and the Activity (Rattus norvegicus [22]) was “Active”. The inhibition (Rattus norvegicus [23]) was “Active”, the Activity (Rattus norvegicus [24]) was “Active” and the Activity (Rattus norvegicus [25]) was “inactive”. The inhibition (Mus musculus [26]) was “Active”, the inhibition (Mus musculus [27]) was “inactive” and the Ratio [28] was 3. For the same compound, the inhibition (Rattus norvegicus [29]) was “Active”, the Ratio pKi (Homo sapiens) was 16 and the Ki [2] was 33.9 nM.

For `COc1ccccc1OCCNCC[C@H]1CO[C@H](C(c2ccccc2)c2ccccc2)O1` (relative stereo), the pKb [1] was 6.23 and the Ki [2] was 60.3 nM.

For `COc1ccccc1OCCNCC[C@@H]1CO[C@H](C(c2ccccc2)c2ccccc2)O1` (relative stereo), the pKb [1] was 6.58 and the Ki [2] was 50.1 nM.

`c1ccc(OCCNCC2COC(c3ccccc3)(c3ccccc3)OC2)cc1` gave a pKb [1] of 5.52 and a Ki [2] of 288 nM.

For `COc1ccccc1OCCNCC1CCOC(c2ccccc2)(c2ccccc2)O1` (stereo not given), the pKb [1] was 6.99 and the Ki [2] was 24.5 nM.

`c1ccc(OCCNCCOC(c2ccccc2)c2ccccc2)cc1` gave a pKb [1] of 7.65 and a Ki [2] of 17 nM.

Compound `COc1ccccc1OCCNCC(CO)OC(c1ccccc1)c1ccccc1` (stereo not given) has a pKb [1] of 6.51 and a Ki [2] of 83.2 nM.

Work on `COc1ccccc1OCCNCCOC(c1ccccc1)c1ccccc1` yielded a pKb [1] of 6.18 and a Ki [2] of 44.7 nM.

Work on `c1ccc(OCCNCC2CCOC(c3ccccc3)(c3ccccc3)O2)cc1` (stereo not given) yielded a pKb [1] of 6.12 and a Ki [2] of 38.9 nM.
